# According to US6414031B1, “Bisoximether derivatives, methods and intermediate products for the production thereof, and their use for combating fungicidal pests and animal pests” (BASF Aktiengesellschaft, priority 1998, dated 2002):
# Tests used:
# Assay type in all cases: in vivo
# Aphis fabae = experiment: Action against Aphis fabae, contact action; conditions: infested dwarf beans (Vicia faba), mortality after 24 hours
# Source text: (§1) The active ingredients were formulated
# (§2) a. as a 0.1% strength solution in acetone or
# (§3) b. as a 10% emulsion in a mixture of 70% by weight of cyclohexanone, 20% by weight of Nekanil® LN (Lutensol® AP6, wetter having emulsifying and dispersant action, based on ethoxylated alkylphenols) and 10% by weight of Wettol® EM (non-ionic emulsifier based on ethoxylated castor oil)
# (§4) and diluted to give the desired concentration, using acetone in the case of a. and water in the case of b.
# Severely infested dwarf beans (Vicia faba) in the four-leaf stage were treated with aqueous formulations of active ingredient. The mortality rate was determined after 24 hours.
# Nephotettix cincticeps [1] = experiment: Action against Nephotettix cincticeps (crop spray experiment); conditions: sprayed rice plants, adult leafhoppers, mortality after 24 hours
# Source text: as §1, §2, §3, §4
# Rice plants grown in pots (plant height approximately 8 cm) were sprayed to runoff point with aqueous formulations of active ingredients. After drying, the plants were populated with 20 adult leafhoppers. The mortality was determined after 24 hours.
# Nephotettix cincticeps [2] = experiment: Action against Nephotettix cincticeps, contact action (filter disks); conditions: treated filter disks, adult leafhoppers, mortality after 24 hours
# Source text: as §1, §2, §3, §4
# Filter disks (Ø 9 cm) were treated with 1 ml of aqueous formulations of the active ingredient and subsequently populated with five adult leafhoppers. The mortality was determined after 24 hours.
# Puccinia recondita = experiment: Curative activity against Puccinia recondita on wheat (leaf rust); conditions: 1 ppm, wheat sprayed 1 day after infection, assessed after 7 days, untreated 90%
# Source text: as §3, with “The active ingredients, separately or together, were formulated” for “b.”, “[…],” for “cyclohexanone,”, “oil) and diluted with water to give the desired concentration.” for “oil)”
# Leaves of wheat seedling cv. “Kanzler” grown in pots were dusted with leaf rust spores (Puccinia recondita). The pots were then placed for 24 hours into a chamber with high atmospheric humidity (90 to 95%) and 20 to 22° C. During this time, the spores germinated and the germ tubes penetrated the leaf tissue. Next day, the infected plants were sprayed to runoff with an aqueous active ingredient preparation made with a stock solution consisting of 10% of active ingredient, 63% of cyclohexanone and 27% of emulsifier. After the spray coating had dried on, the test plants were grown in the greenhouse for 7 days at temperatures between 20 and 22° C. and a relative atmospheric humidity of 65 to 70%. The extent of rust development on the leaves was then determined.
# Plasmopara viticola = experiment: Activity against Plasmopara viticola on grape leaves (long-term action); conditions: 16 ppm, grape leaves inoculated 7 days after spraying; untreated 85%
# Source text: as §3, with “The active ingredients, separately or together, were formulated” for “b.”, “[…],” for “cyclohexanone,”, “oil) and diluted with water to give the desired concentration.” for “oil)”
# Leaves of grapes cv. “Müller-Thurgaul” in pots were sprayed to runoff with aqueous active ingredient preparations made with a stock solution of 10% active ingredient, 63% cyclohexanone and 27% of emulsifier. In order to be able to assess the long-term action of the substances, the spray coating was allowed to dry off and the plants were then placed in the greenhouse for 7 days. Only then were the leaves inoculated with an aqueous zoospore suspension of Plasmopara viticola. Then, the vines were first placed for 48 hours into a water-vapor-saturated chamber at 24° C. and then for 5 days in the greenhouse at temperatures between 20 and 30° C. After this time, the plants were returned to a humid chamber for 16 hours to accelerate sporangiophore eruption for 16 hours. The extent of the disease development on the undersides of the leaves was then determined visually.
Structure (SMILES),limit concentration (lowest concentration with 80 to 100% inhibition or mortality) (Aphis fabae) [ppm],limit concentration (lowest concentration with 80 to 100% inhibition or mortality) (Nephotettix cincticeps [1]) [ppm],limit concentration (lowest concentration with 80 to 100% inhibition or mortality) (Nephotettix cincticeps [2]) [mg],disease level (extent of rust development on the leaves) (Puccinia recondita) [%],disease level (undersides of the leaves) (Plasmopara viticola) [%]
COC=C(C(=O)OC)c1ccccc1CON=C(C)C(=NOC)C1CCCCC1 [A],100,400,0.2,90,
CC=C(C(=O)OC)c1ccccc1CON=C(C)C(=NOC)C1CCCCC1 [B],,400,0.2,,
CON=C(C(=O)OC)c1ccccc1CON=C(C)C(=NOC)C1CCCCC1 [C],100,,,,
COC=C(C(=O)OC)c1ccccc1CON=C(C)C(=NOC)C1CCC(C)CC1 (centres unmarked) [Compound I-3],,,0.04,,
CC=C(C(=O)OC)c1ccccc1CON=C(C)C(=NOC)C1CCC(C)CC1 (centres unmarked) [Compound I-4],,,0.04,,
CNC(=O)C(=NOC)c1ccccc1CON=C(C)C(=NOC)C1CCCCC1 [D],,,,90,60
